Tests used:
K562 = assay: Antiproliferative activity against human K562 cell line; assay type: functional, cell-based
Tubulin = Tubulin (Sus scrofa, UniProt P02554+P02550); assay: Inhibition of tubulin polymerization in porcine brain

SMILES	IC50 (K562)	IC50 (Tubulin)
O=C1c2ccccc2/C(=C/c2cccs2)c2sccc21	390 nM	1.34 µM
O=C1c2ccccc2/C(=C/c2c[nH]c3ccccc23)c2sccc21	720 nM	2.8 µM
COc1ccc(/C=C2/c3ccccc3C(=O)c3ccsc32)cc1	440 nM	3.3 µM
COc1ccc(COc2c3ccccc3cc3sccc23)cc1OC	900 nM	3.98 µM
COc1cc(/C=C2/c3ccccc3C(=O)c3ccsc32)cc(OC)c1OC	600 nM	7.4 µM
COc1ccc(/C=C2/c3ccccc3C(=O)c3ccsc32)cc1O	230 nM	1.4 µM
c1ccc(COc2c3ccccc3cc3sccc23)cc1	2380 nM	–
O=C1c2ccccc2/C(=C/c2ccc(O)cc2)c2sccc21	810 nM	–
COc1ccc(CC(=O)Oc2c3ccccc3cc3sccc23)cc1	15000 nM	> 10 µM
COc1ccc(CCOc2c3ccccc3cc3sccc23)cc1	5300 nM	> 10 µM
COc1ccc(/C=C2/c3ccccc3C(=O)c3ccsc32)cc1OC	320 nM	–
Cn1cc(/C=C2/c3ccccc3C(=O)c3ccsc32)c2ccccc21	250 nM	–
O=C1c2ccccc2/C(=C/c2cc(Cl)cc(Cl)c2)c2sccc21	420 nM	–
O=[N+]([O-])c1ccc(COc2c3ccccc3cc3sccc23)cc1	3130 nM	–
COc1ccc(CCC(=O)Oc2c3ccccc3cc3sccc23)cc1	> 90000 nM	–
COc1ccc(C(=O)Oc2c3ccccc3cc3sccc23)cc1	> 90000 nM	> 10 µM
O=C1c2ccccc2Cc2sccc21	7000 nM	–

Now from value to compound:

IC50 (K562)	IC50 (Tubulin)	SMILES
330 nM	6.2 µM	O=C1c2ccccc2/C(=C/c2ccccc2)c2sccc21
8950 nM	> 10 µM	COc1cc(COc2c3ccccc3cc3sccc23)cc(OC)c1OC
6690 nM	–	O=C1c2ccccc2/C(=C/c2cc(Br)c(O)c(Br)c2)c2sccc21
720 nM	> 10 µM	O=C1c2ccccc2/C(=C/c2ccc([N+](=O)[O-])cc2)c2sccc21
230 nM	0.77 µM	COc1ccc(/C=C2/c3ccccc3C(=O)c3ccsc32)c(O)c1
270 nM	–	O=C1c2ccccc2/C(=C/c2ccc(O)c(O)c2)c2sccc21
240 nM	–	COc1ccc2[nH]cc(/C=C3/c4ccccc4C(=O)c4ccsc43)c2c1
100 nM	0.88 µM	COc1cc(/C=C2/c3ccccc3C(=O)c3ccsc32)ccc1O

Source: ChEMBL document CHEMBL1138222, “9-Benzylidene-naphtho[2,3-b]thiophen-4-ones as novel antimicrotubule agents-synthesis, antiproliferative activity, and inhibition of tubulin polymerization” (J Med Chem, 2006)
